Source: patent US10172835B2, “Anticancer agent composition” (J-Pharma Co., Ltd., priority 2014, dated 2019)

Assays:
[1] = test system: HT-29 cell derived from human large intestine cancer; assay: Tumor growth in nude mouse SOI model (HT-29 grafted onto wall of large intestine); format: in vivo
Text: […] was expressed in a HT-29 cell derived from human large intestine cancer, and which was grafted onto the wall of large intestine of a mouse to produce a metamouse. According to this, the quantity of the size of the tumor could be determined with time with emission intensity. In FIG. 16, the size of tumor in each treatment group was shown with a bar graph. Group 1 is a control group, Groups 2 to 4 are a group in which COM-JP was intraperitoneally administered alone at 3.1, 12.5, and 50 mg/kg weight/day every day for 4 weeks, Group 5 is a group in which CDDP was intraperitoneally administered alone at 2.5 mg/kg/day three times on day 0, day 6, and day 13, Groups 6 to 8 are a group in which Groups 2 to 4 and Group 5 were combined to be administered in combination, and Group 9 is a group in which COM-JP was orally administered at 300 mg/kg/day every day for 4 weeks.

[2] = test system: mTOR (phospho-S6RP); assay: Phospho-Flow staining of phospho-S6RP in primary T-ALL samples; format: cell-based, human; settings: two primary T-ALL samples, 10 μM
Protocol: Cells (1.0±0.1×10^6 per well; 1 mL) were incubated with various effectors (24 h, 37° C.) and then permeabilized with Cytofix/Cytoperm buffer (100 μL, 30 min, 4° C.) and then washed with PermWash (BD Biosciences) and stained with phospho-Ser235/236-S6RP antibody (30 min, 4° C.). After an additional PermWash, cells were then stained with a secondary anti-rabbit-alexaF 488 (20 μg/mL; Life Technologies) for (30 min, 4° C.). Cells were then washed in PermWash and re-suspended in staining buffer (PBS+0.1% bovine serum albumin+1.0% paraformaldehyde) and analyzed by flow cytometry on a MacsQuant Analyser (Miltenyi Biotech).

[3] = test system: KO99L cells; assay: Cell death by flow cytometry after DAPI staining, KO99L cells; format: cell-based, murine; settings: 48 h
[4] = test system: caspase 3; assay: Western blot of caspase 3 activation and PARP cleavage in primary tPTEN−/− tumor cells (KO#732); format: cell-based, murine; settings: primary KO#732 cells; COMPOUND-JP 5.0, 10.0 μM; PI-103 10.0 μM; rapamycin 10.0 nM; 2.0-18.0 h
Protocol: Cell extracts were prepared using a cell lysis buffer (50 mM HEPES, pH 7.4, 150 mM NaCl, 20 mM EDTA, 100 mM NaF, 10 mM Na3VO4, 0.5% nonyl phenoxypolyethoxylethanol (NP40) supplemented with a cocktail of protease inhibitors. After SDS-PAGE separation and transfer to nitrocellulose immunoblotting was performed using the following antibodies against: Akt (Cell Signaling Technologies, #9272), CHOP (#2895), cleaved caspase 3 (#9664), c-Myc (#9402), eIF2a (#9721), 4EBP1 (#9644), LC3A/B (#12741), PARP (#9542), pJnk (T183/Y185) (#9251), pSer235-236-S6RP (#4856), pSer473-Akt (#9271), pSer65-4EBP1 (#9451) and S6RP (#2217); Bax (Sigma-Aldrich, B8429); PUMA (Abcam, ab54288); Bak (Millipore, 06536); ATF4 (Santa Cruz Biotechnologies, sc200), GADD34 (sc8327), Hsp60 (sc-1722), Hsp90 (sc-13119) and XBP1 (sc-7160); ATF6 (Imgenex, IMG-273).

[5] = test system: KO99-RJ cells; assay: WST-1 cell viability of COMPOUND-JP-resistant KO99-RJ cells; format: cell-based, murine; settings: Mus musculus, 48 h, read-out: decrease in cell viability
Protocol: Two different assays were employed: i) In a 96-well plate format, cells (4.0±0.1×10^4 per well; 100 μL) were incubated with effectors (48 h, 37° C.; n=4 per experiment) and then WST-1 reagent (10 μL; Roche Diagnostics) added to each well of 96-well plates, incubated, and the formazan production was measured at 490 nm; and ii) cells (2.0±0.1×10^4 per well; 100 μL) were incubated with effectors (48 h, 37° C.; n=4 per experiment) and then bromodeoxyuridine reagent (10 μL/well; Roche Diagnostics) was added to each well and incubated (8 h, 37° C.). The cells were then fixed, denatured and incubated with anti-BrdU-conjugated with peroxidase (POD) antibody (100 μL/well). Colorimetric substrate (TMB: tetramethyl-benzidine; 100 μL/well) was added and BrdU incorporation quantified via optical density measurement (450 nm) which corresponds to DNA synthesis and proliferating cells.

Nc1cc(COc2c(Cl)cc(C[C@H](N)C(=O)O)cc2Cl)c2oc(-c3ccccc3)nc2c1 [COMPOUND-JP, O-(5-amino-2-phenylbenzoxazole-7-yl)methyl-3,5-dichloro-L-tyrosine]
efficacy on tumor growth, single administration ([1]; COM-JP i.p. 3.1, 12.5, 50 mg/kg/day 4 weeks, CDDP i.p. 2.5 mg/kg/day day 0, 6, 13): not recognized
increase of the tumor ([1]; Group 9: orally 300 mg/kg/day every day for 4 weeks, vs untreated control): more significantly decreased
phospho-S6RP by phospho-Flow cytometry [2]: mTOR inhibitory effect
decrease of COMPOUND-JP induced cell death upon EAA addition [3]: 2.5 fold
caspase 3 processing and PARP cleavage (apoptosis) [4]: induced caspase 3 processing and PARP cleavage
cytotoxicity at 40 µM [5]: ~40%
